Measurements taken from patent US10172815B2, “Targeted treatment of anerobic cancer” (UNIVERSITY HOSPITALS CLEVELAND MEDICAL CENTER, priority 2013, dated 2019).
Values joined by “and” are separate entries in the source; they are usually repeats but may differ in a detail not shown here. Identical values can stand only once.

How the values were obtained:
N1-S1 hepatoma = test: Additional comparison study, hepatocellular rat model, TAE combined with anti-glycolytic agents (Example 2); type: in vivo, Sprague Dawley rats; details: over four weeks
Procedure: To determine if anti-glycolytic agents (AG) combined with transarterial embolization (TAE) improves treatment of an N1-S1 tumor model implanted in Sprague-Dawley rat livers. The animal experiments were approved by the Institutional Animal Care and Use Committee. […] The agents were slowly injected within 2 minutes. […] Tumor volume (V) was calculated by the formula: V=0.5*L*W*H. Relative tumor volume after treatment was calculated as the percentage of pre-treatment tumor volume. Kruskal-Wallis test with Minitab 16 was used to compare the difference of relative tumor volume between 4 groups on each observation time point.

Ki67 = test: IHC stain for Ki67 proliferation marker in tumor tissue; type: in vivo, athymic nude mice; details: after 3-week therapy, mean±SD
Procedure: Once the final DCE-MRI scans were complete at the end of the therapy, the mice were intravenously injected with 60 mg/kg of pimonidazole, an established marker for the detection of tissue hypoxia. After one hour following the pimonidazole staining, the tumors from these mice were resected for further biological analysis. Half of each tumor that was collected was snap-frozen in liquid nitrogen for western blot, while the other half was sliced into thin sections and formalin-fixed/paraffin-imbedded for immunohistochemistry (IHC) staining. For western blot, cell lysates from the frozen tissue were prepared by homogenizing entire tumor tissues in RIPA lysis buffer supplemented with a Halt protease inhibitor cocktail (Thermo Fisher Scientific). […] Image J software was utilized to quantify the relative protein expression of HIF-1α from the blots by calculating the total pixel intensity from each protein band, and then normalizing these signals with its corresponding β-actin stain. […]
Despite the fact that bumetanide inhibited angiogenesis and induced vascular regression, the therapy was not able to slow down the tumor growth rate over the course of the study. […] A Ki67 index was calculated by determining the percentage of nuclei in a given area of the tissue expressed this factor.

VEGF = test: Western blot and IHC of VEGF in tumor tissue; type: in vivo, athymic nude mice; details: after 3 weeks of therapy; western blot; vs saline control
Source text: Dynamic contrast-enhanced (DCE) MRI is a non-invasive imaging technique that is able to quantify the anatomical and physiological progression of tumor angiogenesis in response to a variety of different cancer therapies. In order to allow for the safe use of macromolecular contrast medium, a novel polydisulfide-based agent, poly([(Gd-DOTA)-DETA]-co-DTBP) (GODP) was designed, which initially starts as a macromolecular agent during an DCE-MRI protocol, and is then gradually degraded by endogenous thiols in the reductive environment of the bloodstream to improve renal clearance. In this study, two groups of 3 mice, bearing flank HT29 colon cancer xenografts, were treated daily with either bumetanide or saline for a total of 3 weeks. DCE-MRI was performed before and after the start of treatment on a weekly basis, and the collected was analyzed using the adiabiatic approximation to the tissue homogeneity (AATH) model. IHC and western blot analysis was performed to study the changes in CD31, VEGF, and tissue hypoxia. […] Image J software was utilized to quantify the relative protein expression of HIF-1α from the blots by calculating the total pixel intensity from each protein band, and then normalizing these signals with its corresponding β-actin stain. […]

CD31 = test: IHC stain for CD31 in tumor tissue; type: in vivo, athymic nude mice; details: after 3-week therapy, tumor periphery and core, vs saline control
Procedure: (§1) Once the final DCE-MRI scans were complete at the end of the therapy, the mice were intravenously injected with 60 mg/kg of pimonidazole, an established marker for the detection of tissue hypoxia. After one hour following the pimonidazole staining, the tumors from these mice were resected for further biological analysis. Half of each tumor that was collected was snap-frozen in liquid nitrogen for western blot, while the other half was sliced into thin sections and formalin-fixed/paraffin-imbedded for immunohistochemistry (IHC) staining. For western blot, cell lysates from the frozen tissue were prepared by homogenizing entire tumor tissues in RIPA lysis buffer supplemented with a Halt protease inhibitor cocktail (Thermo Fisher Scientific). […] The blots were blocked for 1 hr and then stained overnight at 4° C. with primary antibodies for HIF-1α and β-actin, the latter of which serving as the housekeeper control. Image J software was utilized to quantify the relative protein expression of HIF-1α from the blots by calculating the total pixel intensity from each protein band, and then normalizing these signals with its corresponding β-actin stain. Sections of the formalin-fixed tissue were stained with the antibodies for CD31 and the Ki67 nuclear proliferation marker. They were also stained with a primary antibody for the detection of the pimonidazole hypoxia marker. […]

[1] = test system: HT29 colon cancer xenografts; test: Pimonidazole staining of tumor hypoxia; type: in vivo, athymic nude mice; details: after 3-week therapy; vs saline control
Procedure: as §1

[2] = test system: HT29 colon adenocarcinoma xenografts; test: Tumor growth measured with a caliper; type: in vivo, athymic nude mice; details: any point during the 3-week administration period
Procedure: (§2) The anti-angiogenic effects of bumetanide were investigated in a mouse model bearing subcutaneous HT29 colon adenocarcinoma xenografts. HT29 cells were initially cultured in McCoy's 5A growth media (ATCC), supplemented with 10% FBS, […] of streptomycin, and 100 units/mL of penicillin (Invitrogen). A total of 1×10^6 cells were then inoculated into athymic nude mice in a 250 μL volume of Matrigel (BD Biosciences). Before the start of treatment, tumors were allowed to grow for 10 days, until they were approximately 0.5 cm in diameter. This study comprised of 2 groups of 3 mice, one of which was treated with bumetanide, and the other with a saline control. The drug and saline control were injected intraperitoneally on a daily basis for 3 weeks, with a bumetanide dose of 10 mg/kg. All mice were sacrificed on day 21 of the treatment regimen. Tumor growth was measured at several time points during the therapy with a caliper. Volumes were calculated using the formula […], where D1 and D2 were two diameters measured along perpendicular axes of the tumor lesion.

[3] = test system: HT29 colon cancer xenografts; test: DCE-MRI with GODP, AATH model, tumor vascularity; type: in vivo, athymic nude mice; details: 3-week time point; 10 mg/kg i.p. daily; entire tumor; mean±SD
Source text: Dynamic contrast-enhanced (DCE) MRI is a non-invasive imaging technique that is able to quantify the anatomical and physiological progression of tumor angiogenesis in response to a variety of different cancer therapies. In order to allow for the safe use of macromolecular contrast medium, a novel polydisulfide-based agent, poly([(Gd-DOTA)-DETA]-co-DTBP) (GODP) was designed, which initially starts as a macromolecular agent during an DCE-MRI protocol, and is then gradually degraded by endogenous thiols in the reductive environment of the bloodstream to improve renal clearance. In this study, two groups of 3 mice, bearing flank HT29 colon cancer xenografts, were treated daily with either bumetanide or saline for a total of 3 weeks. DCE-MRI was performed before and after the start of treatment on a weekly basis, and the collected was analyzed using the adiabiatic approximation to the tissue homogeneity (AATH) model. IHC and western blot analysis was performed to study the changes in CD31, VEGF, and tissue hypoxia.
as §2, with “The drug and saline control were injected intraperitoneally on a daily basis for 3 weeks, with a bumetanide dose of 10 mg/kg. All mice were sacrificed on day 21 of the treatment regimen.” left out
Changes in the tumor vascularity were monitored during the treatment by DCE-MRI. […]

HIF-1α = test: Western blot of HIF-1α in tumor tissue; type: in vivo, athymic nude mice; details: after 3 weeks of therapy, vs saline control
Procedure: as §1

`O=C(O)/C=C/c1ccc(O)c(O)c1` [caffeic acid] was tested, and the “relative tumor volume comparing the different treatments (FIG. 25)” value (N1-S1 hepatoma) was “effective at reducing tumor volume”.

With `COc1cc(/C=C/C(=O)O)ccc1O` [ferulic acid] the “relative tumor volume comparing the different treatments (FIG. 25)” value (N1-S1 hepatoma) was “effective at reducing tumor volume”.

With `CCCCNc1cc(C(=O)O)cc(S(N)(=O)=O)c1Oc1ccccc1` [bumetanide, 3-butylamino-4-phenoxy-5-sulfamoyl-benzoic acid] the “Ki67 index (percentage of nuclei expressing Ki67)” value (Ki67) was roughly 24.7±4.51%, the “VEGF protein levels lower than in control tumors” value (VEGF) was 42.9% and the CD31 expression (CD31) was “significant decrease”. The “tumor hypoxia (pimonidazole staining intensity)” value [1] was “increase”, the “tumor size versus saline control” value [2] was “no significant difference” and the “average decrease in Fp (blood flow rate) between pre- and post-treatment levels” value [3] was 71.2±8.01%. The “average reduction in PS (permeability-surface area product) from pre-treatment level” value [3] was 72.2±9.26%, the “average reduction in Vp (fractional plasma volume) from pre-treatment level” value [3] was 75.6±8.97% and the “HIF-1α expression greater than in control tumors” value (HIF-1α) was 59.1% and 59.2%. The “relative tumor volume comparing the different treatments (FIG. 25)” value (N1-S1 hepatoma) was “effective at reducing tumor volume”.
